“And” between values parts separate entries of the source, which are not always exact repeats. Equal entries are not always repeated.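 Test compounds were applied to cells in 96-well plates for 48 hours at 5 doses. GI50 = concentration required for 50% inhibition of growth. TGI is the concentration that stops growth completely.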
Experiments:
Assay in all cases: inhibition of tumour cell growth, NCI panel, 48 h
COLO 205 colon = tested on: COLO 205 colon
DU-145 prostate = tested on: DU-145 prostate
HCT-116 colon = tested on: HCT-116 colon
HT29 colon = tested on: HT29 colon
KM12 colon = tested on: KM12 colon
RXF 393 renal = tested on: RXF 393 renal
SNB-75 CNS = tested on: SNB-75 CNS
UACC-62 melanoma = tested on: UACC-62 melanoma

SMILES	GI50 (COLO 205 colon)	TGI (COLO 205 colon)	GI50 (DU-145 prostate)	TGI (DU-145 prostate)	GI50 (HCT-116 colon)	TGI (HCT-116 colon)	GI50 (HT29 colon)	TGI (HT29 colon)	GI50 (KM12 colon)	TGI (KM12 colon)	GI50 (RXF 393 renal)	TGI (RXF 393 renal)	GI50 (SNB-75 CNS)	TGI (SNB-75 CNS)	GI50 (UACC-62 melanoma)	TGI (UACC-62 melanoma)
COc1cc2c(cc1NC(=O)C(Cl)Cl)-c1ccc(NC(=O)C(Cl)Cl)cc1C2	0.407 µM	1.1 µM	0.265 µM	0.804 µM	0.136 µM	0.271 µM	0.201 µM	0.641 µM	0.336 µM	1.17 µM	0.429 µM	1.66 µM	0.758 µM	3.19 µM	0.586 µM	2.07 µM
O=S(=O)(NCCCNc1cc(-c2cn(-c3ccccc3)nc2-c2cccc(O)c2)ccn1)c1ccc(F)cc1	1.96 µM	3.87 µM	4.12 µM	36.7 µM	2.91 µM	11.7 µM	2.26 µM	6.5 µM	3.24 µM	11.7 µM	3.21 µM	14.6 µM	3.47 µM	16 µM	2.92 µM	12 µM
COc1cc(C(=O)/C=C/c2c(C(F)(F)F)nc3ccccn23)cc(OC)c1OC	2.11 µM	4.36 µM	1.61 µM	3.51 µM	1.26 µM	3.21 µM	1.93 µM	4.45 µM	1.73 µM	3.64 µM	1.87 µM	3.91 µM	1.76 µM	3.44 µM	1.66 µM	3.32 µM
O=S(=O)(O)c1ccc2cc3nn(-c4ccc(/C=C/c5ccc(-n6nc7cc8ccc(S(=O)(=O)O)cc8cc7n6)cc5S(=O)(=O)O)c(S(=O)(=O)O)c4)nc3cc2c1	74 µM	> 100 µM	> 100 µM	> 100 µM	23.6 µM	> 100 µM	59.1 µM	> 100 µM	30.4 µM	> 100 µM	> 100 µM	> 100 µM	> 100 µM	> 100 µM	34.1 µM	> 100 µM
C[C@@H](NC(=O)c1ccc(F)cc1)c1ccc2c(c1)CCN2C(=O)C1CCOCC1	> 100 µM	> 100 µM	> 100 µM	> 100 µM	> 100 µM	> 100 µM	> 100 µM	> 100 µM	> 100 µM	> 100 µM	> 100 µM	> 100 µM	79.2 µM	> 100 µM	93.5 µM	> 100 µM
COc1ccc2c(c1)C(=O)c1c-2c(=O)n(CCCN(C)C)c2cc(OC)c(OC)cc12	12.6 µM	25.3 µM	0.623 µM	10.9 µM	4.53 µM	21.4 µM	3.69 µM	19.1 µM	5.73 µM	19.8 µM	11.2 µM	23.6 µM	10.1 µM	23 µM	> 100 µM	> 100 µM
CC(=O)N(O)c1ccc(/C=C/c2ccccc2)cc1	3.34 µM	44 µM	0.278 µM	2.52 µM	1.12 µM	13.4 µM	3.39 µM	53.2 µM	2.99 µM	28.3 µM	0.539 µM	1.9 µM	0.883 µM	4.59 µM	1.46 µM	4.69 µM
COC(=O)c1cc([N+](=O)[O-])cc([N+](=O)[O-])c1Cl	1.65 µM	3.1 µM	2.3 µM	6.6 µM	1.06 µM	2.63 µM	1.88 µM	3.49 µM	11.3 µM	23.6 µM	1.72 µM	3.12 µM	1.93 µM	5.07 µM	1.55 µM	3.1 µM
Cc1cc2c(c(=O)o1)C1=S(SC(c3ccccc3)=C1)S2 (stereo not given)	–	> 100 µM	–	> 100 µM	–	60.6 µM	–	> 100 µM	–	> 100 µM	–	50.1 µM	–	94.5 µM	–	> 100 µM
Cc1ccc(S(=O)(=O)NC(=O)OC23COCN2COC3)cc1	–	> 100 µM	–	> 100 µM	–	> 100 µM	–	> 100 µM	–	> 100 µM	–	> 100 µM	–	> 100 µM	–	> 100 µM
C=CC(=O)N[C@@H](/C=C/C(=O)OCC)Cc1ccc(-c2cc(Cl)cc(Cl)c2)cc1	14.8 µM	53.9 µM	12.9 µM	64.2 µM	5.29 µM	34.2 µM	12.8 µM	41.9 µM	16.6 µM	93.7 µM	7.96 µM	35.3 µM	10.8 µM	70 µM	4.6 µM	25.2 µM
O=C(c1cc(Cc2n[nH]c(=O)c3ccccc23)ccc1F)N1CCN(C(=O)C2CC2)CC1	> 100 µM	> 100 µM	33.5 µM and > 100 µM	> 100 µM	> 100 µM and 99.1 µM	> 100 µM	> 100 µM	> 100 µM	> 100 µM	> 100 µM	52.1 µM and > 41.4 µM	> 100 µM	14.9 µM and 18 µM	> 100 µM	67.9 µM and 76.2 µM	> 100 µM
CC1CCN(CCOc2ccc(CNc3ccc4nc(CCC5CCCCC5)[nH]c4c3)cc2)CC1	1.57 µM	3.08 µM	2.52 µM	6.9 µM	1.4 µM	2.72 µM	1.15 µM	2.81 µM	1.77 µM	3.51 µM	1.33 µM	2.84 µM	1.59 µM	3.55 µM	1.9 µM	3.36 µM
O=c1[nH]c(=S)[nH]c(-c2ccccc2)c1Cc1c(O)ccc2ccccc12	–	42.1 µM	–	> 100 µM	–	74.4 µM	–	> 100 µM	–	> 100 µM	–	95.1 µM	–	65 µM	–	52.4 µM
CC1=NNC(=S)NCCCN2CCN(CCCNC(=S)NN=C(C)C=NNC(=S)NCCCN3CCN(CCCNC(=S)NN=C1)CC3)CC2	–	> 100 µM	–	> 100 µM	–	> 100 µM	–	> 100 µM	–	> 100 µM	–	> 100 µM	–	> 100 µM	–	> 100 µM
C[C@H]1CN(C2COC2)CCN1c1ccc(Nc2cc(-c3ccnc(N4CCn5c(cc6c5CC(C)(C)C6)C4=O)c3CO)cn(C)c2=O)nc1	27.1 µM	> 100 µM	45.9 µM	> 100 µM	38.4 µM	> 100 µM	23.8 µM	> 100 µM	56.8 µM	> 100 µM	40.6 µM	> 100 µM	15.5 µM	> 100 µM	23.2 µM	82.3 µM

SMILES	GI50 (COLO 205 colon)	TGI (COLO 205 colon)	GI50 (DU-145 prostate)	TGI (DU-145 prostate)	GI50 (HCT-116 colon)	TGI (HCT-116 colon)	GI50 (HT29 colon)	TGI (HT29 colon)	GI50 (KM12 colon)	TGI (KM12 colon)	GI50 (RXF 393 renal)	TGI (RXF 393 renal)	GI50 (SNB-75 CNS)	TGI (SNB-75 CNS)	GI50 (UACC-62 melanoma)	TGI (UACC-62 melanoma)
Cc1ccc(-n2c(-c3cc4c([nH]c5ccccc54)c(-c4cccc(O)c4)n3)n[nH]c2=S)cc1	2.46 µM	8.14 µM	0.616 µM	6.17 µM	0.384 µM	10 µM	1.36 µM	3.68 µM	1.15 µM	5.1 µM	–	–	1.34 µM	6.17 µM	0.491 µM	2.57 µM
Fc1ccc2nc(-c3nc(-c4ccccc4)n4ccccc34)[nH]c2c1	3.42 µM	13.1 µM	5.56 µM	18.1 µM	2 µM	3.82 µM	3.25 µM	9.15 µM	3.31 µM	10.2 µM	2.99 µM	10.2 µM	2.09 µM	6.87 µM	1.96 µM	4.96 µM
COc1ccc(-c2c3c(N)c4c(nc3nc3c2c(C)nn3-c2ccccc2)CCCC4)cc1	2.32 µM	5.91 µM	4.72 µM	16.4 µM	2.15 µM	5.48 µM	2.68 µM	8.8 µM	3.16 µM	10.8 µM	8.48 µM	26.7 µM	14 µM	31.8 µM	13.7 µM	27.9 µM
COc1ccc(/C=N\Nc2nc(SCC(C)C)nc(-c3ccc(OC)cc3)c2C#N)cc1	3.72 µM	23.4 µM	13.7 µM	> 100 µM	0.679 µM	15.3 µM	3.19 µM	20.1 µM	10.6 µM	> 100 µM	2.81 µM	15.8 µM	1.67 µM	8.06 µM	25.2 µM	> 100 µM
N#Cc1c(NC(=O)c2ccccc2F)sc2c1CCCC2	22.2 µM	> 25 µM	> 25 µM	> 25 µM	> 25 µM	> 25 µM	10.4 µM	> 25 µM	5.12 µM	> 25 µM	> 25 µM	> 25 µM	> 21.7 µM	> 25 µM	18.1 µM	> 25 µM
COc1ccc(-c2[nH]c3ccccc3c2/C=C(\C#N)S(=O)(=O)c2ccccc2)cc1	0.253 µM	0.67 µM	0.447 µM	–	0.391 µM	> 38 µM	0.309 µM	–	0.374 µM	2.59 µM	1.02 µM	> 100 µM	0.375 µM	> 25.9 µM	0.597 µM	16.3 µM
Clc1ccc([I+]c2ccc(Cl)cc2Cl)c(Cl)c1	1.95 µM	3.64 µM	1.92 µM	3.51 µM	1.85 µM	3.67 µM	1.78 µM	3.26 µM	2.13 µM	4.47 µM	–	–	1.88 µM	5.39 µM	–	–
Nc1nc(C(=O)O)c(N=Nc2ccccc2)c(=O)[nH]1	–	> 100 µM	–	> 100 µM	–	> 100 µM	–	> 100 µM	–	> 100 µM	–	> 100 µM	–	> 100 µM	–	> 100 µM
CC1CCC2C(CN(CC3=C(C(F)(F)F)OC4OC5(C)CCC6C(C)CCC3C46OO5)CC3=C(C(F)(F)F)OC4OC5(C)CCC6C(C)CCC3C46OO5)=C(C(F)(F)F)OC3OC4(C)CCC1C32OO4 (stereo not given)	7.64 µM	28.6 µM	–	–	11.6 µM	24.5 µM	25.1 µM	> 100 µM	3.72 µM	10.1 µM	2.45 µM	22.4 µM	81.6 µM	> 100 µM	–	–
Clc1nc(Cl)c2ncn(CCOCCn3cnc4c(Cl)nc(Cl)nc43)c2n1	0.204 µM	0.374 µM	0.196 µM	0.343 µM	0.182 µM	0.346 µM	–	–	0.236 µM	0.491 µM	0.222 µM	0.474 µM	0.181 µM	0.342 µM	0.198 µM	0.412 µM
O=S(=O)(NCCCNc1nccc(-c2c(-c3ccc(F)cc3)nc3sccn23)n1)c1ccc(F)cc1	6.23 µM	> 100 µM	10.8 µM	> 100 µM	5.55 µM	> 100 µM	3.52 µM	21.4 µM	–	–	3.67 µM	70.8 µM	2.16 µM	16.9 µM	4.68 µM	50.7 µM
O=C(c1ccco1)c1c(C(F)(F)F)n([O-])c2cc(F)c(F)cc2[n+]1=O	0.229 µM	3.06 µM	0.238 µM	0.727 µM	0.149 µM	0.386 µM	0.609 µM	> 100 µM	0.7 µM	2 µM	0.193 µM	0.531 µM	–	–	0.242 µM	0.76 µM
Nc1nc2ccccc2c2c1S(=O)(=O)c1ccc(Cl)cc1C2=O	1.94 µM	6.85 µM	2.13 µM	> 50 µM	1.87 µM	32 µM	1.63 µM	5.88 µM	1.86 µM	13.3 µM	0.784 µM	2.05 µM	–	–	1.68 µM	24.8 µM
CN1C(=NCCO)NS(=O)(=O)c2ccccc21	–	> 100 µM	–	> 100 µM	–	> 100 µM	–	> 100 µM	–	> 100 µM	–	> 100 µM	–	–	–	> 100 µM
CC(=O)OCC(CC[CH2][Sn]([Cl])([Cl])[c]1ccccc1)OC(C)=O (stereo not given)	17.3 µM	31.2 µM	–	–	18 µM	31.9 µM	32.3 µM	94.9 µM	17.8 µM	33.2 µM	18.5 µM	34.2 µM	55.8 µM	> 100 µM	12.6 µM	25.6 µM
N#CC1C(N)=NNC12Nc1ccccc1S2 (stereo not given)	26.5 µM	82.5 µM	15.6 µM	55.3 µM	11.5 µM	35.9 µM	–	–	18.9 µM	91.6 µM	–	–	–	–	12.2 µM	30.3 µM

— PubChem BioAssay (NCI)
